US20240287138A1, “CYCLIC PEPTIDES FOR INHIBITING TNF RECEPTOR 1 ACTIVITY” (Merck Sharp & Dohme LLC, priority 2023, published 2024)
Numbered stars: 1 amine (or outer) side, 2 acyl side, 3 side chain; on linkers, the order of the positions; unused ones are H or OH. Bridge positions count the residues as written; N and C are the ends. Square brackets hold non-standard residues; d marks the D form. Peptide text beside a SMILES is read from it. Phe(4-(4-Ac-piperazinyl)) = CC(=O)N1CCN(c2ccc(C[C@H](N)C(=O)O)cc2)CC1; Trp(7-aza,1-CH2COOH) = N[C@@H](Cc1cn(CC(=O)O)c2ncccc12)C(=O)O; Trp(βS-Me,7-OMe) = COc1cccc2c([C@H](C)[C@H](N)C(=O)O)c[nH]c12; Trp(1-CH2COOH) = N[C@@H](Cc1cn(CC(=O)O)c2ccccc12)C(=O)O; Trp(βS-Me) = C[C@@H](c1c[nH]c2ccccc12)[C@H](N)C(=O)O; dPro(trans-4-NMe2) = CN(C)[C@@H]1CN[C@@H](C(=O)O)C1; Trp(7-CN) = N#Cc1cccc2c(C[C@H](N)C(=O)O)c[nH]c12; Trp(7-Cl) = N[C@@H](Cc1c[nH]c2c(Cl)cccc12)C(=O)O; Phe(4-CONH2) = NC(=O)c1ccc(C[C@H](N)C(=O)O)cc1; Phe(4-COOH) = N[C@@H](Cc1ccc(C(=O)O)cc1)C(=O)O; 4Pal(3S-Me) = C[C@@H](c1ccncc1)[C@H](N)C(=O)O; X66 = O=C([C@@H](N[*:1])c1cccc(O)c1)[*:2]; Lys(Me3) = C[N+](C)(C)CCCC[C@H](N)C(=O)O; Pip(5R-OH) = O=C(O)[C@@H]1CC[C@@H](O)CN1; X1 = O=C([C@@H]1CC[C@H](N[*:1])C1)[*:2]; Pip(4-aza) = O=C(O)[C@@H]1CNCCN1; 4Pal = N[C@@H](Cc1ccncc1)C(=O)O; NMeE = CN[C@@H](CCC(=O)O)C(=O)O; dHyp = O=C(O)[C@H]1C[C@H](O)CN1; Ahp(2) = CCCCC[C@H](N)C(=O)O; Pip = O=C(O)[C@@H]1CCCCN1; αMeS = C[C@](N)(CO)C(=O)O; NMeA = CN[C@@H](C)C(=O)O; Nle = CCCC[C@H](N)C(=O)O; Sar = CNCC(=O)O

Each molecule was assayed against T1, TNFα-induced NF-κB signal transduction pathway (TNFR1 signaling) in THP-1 cells (Homo sapiens, UniProt P19438) (assay: THP-1 Lucia NF-κB reporter cell assay, inhibition of TNFα-induced NF-κB signaling). Details: THP-1 NF-κB Lucia reporter cells, 10 ng/mL TNFα, 16-18 h, secreted luciferase; read-out: THP-1 IC50.
T1 sequence (P19438 30-455): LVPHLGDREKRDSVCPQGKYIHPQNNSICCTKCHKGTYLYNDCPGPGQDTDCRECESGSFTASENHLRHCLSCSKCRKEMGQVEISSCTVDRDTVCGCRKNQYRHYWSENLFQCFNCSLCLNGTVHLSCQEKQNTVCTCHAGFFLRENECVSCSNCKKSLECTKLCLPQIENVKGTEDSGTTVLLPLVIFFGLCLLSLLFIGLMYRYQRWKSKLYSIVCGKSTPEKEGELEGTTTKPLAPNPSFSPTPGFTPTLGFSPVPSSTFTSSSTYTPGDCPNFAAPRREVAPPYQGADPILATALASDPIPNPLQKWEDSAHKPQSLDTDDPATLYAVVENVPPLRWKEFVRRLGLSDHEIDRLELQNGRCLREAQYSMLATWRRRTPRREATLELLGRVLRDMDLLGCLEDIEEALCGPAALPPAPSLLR
Assay type: cell-based
Protocol: C. Procedure for THP-1 Lucia NF-κB cells
The inhibition of TNFα-induced NF-κB signal transduction pathways was evaluated in THP-1 cells. THP-1 cells harboring NF-κB-inducible Lucia™ reporter gene (InvivoGen, cat. #thp1-nfkb) designed for monitoring NF-κB signal transduction pathway was employed to assess the inhibitory effect macrocyclic peptides on TNFR1 signaling. The cells were cultured in media containing RPMI 1640, 2 mM L-glutamine, 25 mM HEPES, 10% heat-inactivated fetal bovine serum with appropriate selection antibiotics. Assays were performed in media that was devoid of selection antibiotics. For profiling, 125 nL of peptides in DMSO (10 mM) were dispensed into Falcon® 384-well Optilux white/clear flat bottom TC-treated microtest microplate (Corning, cat. #353963) using Echo® 555. […] A suspension of 1 million cells/mL was dispensed at 20 μL/well in a 384-well plate to a density of 20,000 cells/well and pre-incubated with peptides at 37° C. for 1 h. Subsequently, 5 μL of TNF containing media (recombinant human TNFα; R&D Systems USA, cat. #210-TA-005/CF) or TNF-free media (for controls) was added to the wells. The final concentration of TNFα in the assay in 10 ng/mL. After o.n. incubation at 37° C. (16-18 h), 5 μL of supernatant was aspirated and transferred to a 384-well microplate (PerkinElmer, cat. #6007680) for measurement of secreted luciferase activity with 25 μL of QUANTI-Luc™ luminescence assay reagent (InvivoGen, cat. #rep-qlc1) in each well. The luminescence was measured in EnVision® Multimode Plate Reader (PerkinElmer). Dose response curves were analyzed using a 4-parameter logistic model to calculate IC50 values, reported in Table 2, using TIBCO® Spotfire® software employing appropriate Minimum and Maximum controls.

Row | Compound | IC50 [nM]
1 | CCCC[C@@H]1NC(=O)[C@@H]2CC[C@@H](C2)NC(=O)[C@H]([C@@H](C)c2c[nH]c3c(OC)cccc23)NC(=O)CN(C)C(=O)[C@H](Cc2ccc(C(N)=O)cc2)NC(=O)[C@H](Cc2ccc(C(N)=O)cc2)NC(=O)[C@](C)(CO)NC(=O)[C@H](Cc2c[nH]c3c(C#N)cccc23)NC(=O)[C@H](Cc2ccc(C(=O)O)cc2)NC(=O)[C@H](CC(N)=O)NC(=O)[C@H]2C[C@H](N(C)C)CN2C(=O)[C@H](Cc2cn(CC(=O)O)c3ncccc23)NC(=O)[C@@H]2CC[C@@H](O)CN2C(=O)[C@H](Cc2ccncc2)NC1=O [SEQ ID NO. 32] (cyclo([4Pal][Pip(5R-OH)][Trp(7-aza,1-CH2COOH)][dPro(trans-4-NMe2)]N[Phe(4-COOH)][Trp(7-CN)][αMeS][Phe(4-CONH2)][Phe(4-CONH2)][Sar][Trp(βS-Me,7-OMe)][X1][Nle])) | 0.6
2 | C[C@@H](c1c[nH]c2ccccc12)[C@@H]1NC(=O)[C@H](CO)NC(=O)[C@H](Cc2ccc(O)cc2)NC(=O)[C@H](CCCCN)NC(=O)CSC[C@@H](C(N)=O)NC(=O)[C@H](Cc2c[nH]c3ccccc23)NC(=O)CN(C)C(=O)[C@H](Cc2ccc(O)cc2)NC(=O)[C@H](Cc2ccc(C(=O)O)cc2)NC(=O)[C@](C)(CO)NC(=O)[C@H](Cc2c[nH]c3ccccc23)NC(=O)[C@H](Cc2ccncc2)NC(=O)[C@H](CC(N)=O)NC(=O)[C@H](C)N(C)C1=O [SEQ ID NO. 36] ({CH2CO}-KYS[Trp(βS-Me)][NMeA]N[4Pal]W[αMeS][Phe(4-COOH)]Y[Sar]WC-NH2; thioether N-14) | 2.2
3 | COc1cccc2c([C@H](C)[C@@H]3NC(=O)CN(C)C(=O)[C@H](Cc4ccc(O)cc4)NC(=O)[C@H](Cc4ccc(C(=O)O)cc4)NC(=O)[C@](C)(CO)NC(=O)[C@H](Cc4c[nH]c5c(Cl)cccc45)NC(=O)[C@H](Cc4ccncc4)NC(=O)[C@H](CC(N)=O)NC(=O)[C@H](CCC(=O)O)N(C)C(=O)[C@H](Cc4c[nH]c5ccccc45)NC(=O)[C@@H]4CCCCN4C(=O)[C@H](Cc4ccncc4)NC(=O)[C@H](CCCC[N+](C)(C)C)NC(=O)[C@@H]4CC[C@@H](C4)NC3=O)c[nH]c12 [SEQ ID NO. 47] (cyclo([4Pal][Pip]W[NMeE]N[4Pal][Trp(7-Cl)][αMeS][Phe(4-COOH)]Y[Sar][Trp(βS-Me,7-OMe)][X1][Lys(Me3)])) | 1.9
4 | CCCC[C@@H]1NC(=O)CSC[C@@H](C(N)=O)NC(=O)[C@H]([C@@H](C)c2c[nH]c3c(OC)cccc23)NC(=O)CN(C)C(=O)[C@H](c2cccc(O)c2)NC(=O)[C@H](Cc2ccc(C(N)=O)cc2)NC(=O)[C@](C)(CO)NC(=O)[C@H](Cc2c[nH]c3c(Cl)cccc23)NC(=O)[C@H](Cc2ccc(C(=O)O)cc2)NC(=O)[C@H](CC(N)=O)NC(=O)[C@H](CCC(=O)O)N(C)C(=O)[C@H](Cc2cn(CC(=O)O)c3ccccc23)NC(=O)[C@@H]2CNCCN2C(=O)[C@H](Cc2ccncc2)NC1=O [SEQ ID NO. 52] ({CH2CO}-[Nle][4Pal][Pip(4-aza)][Trp(1-CH2COOH)][NMeE]N[Phe(4-COOH)][Trp(7-Cl)][αMeS][Phe(4-CONH2)][X66][Sar][Trp(βS-Me,7-OMe)]C-NH2; thioether N-14) | 3.9
5 | CCCCC[C@@H]1NC(=O)[C@@H]2CC[C@@H](C2)NC(=O)[C@H]([C@@H](C)c2c[nH]c3c(OC)cccc23)NC(=O)CN(C)C(=O)[C@H](Cc2ccc(C(N)=O)cc2)NC(=O)[C@H](Cc2ccc(C(N)=O)cc2)NC(=O)[C@](C)(CO)NC(=O)[C@H](Cc2c[nH]c3c(C#N)cccc23)NC(=O)[C@H](Cc2ccc(C(=O)O)cc2)NC(=O)[C@H](CC(N)=O)NC(=O)[C@H]2C[C@H](O)CN2C(=O)[C@H](Cc2c[nH]c3ccccc23)NC(=O)[C@H](CC(=O)O)NC(=O)[C@H]([C@@H](C)c2ccncc2)NC1=O [SEQ ID NO. 55] (cyclo([Ahp(2)][4Pal(3S-Me)]DW[dHyp]N[Phe(4-COOH)][Trp(7-CN)][αMeS][Phe(4-CONH2)][Phe(4-CONH2)][Sar][Trp(βS-Me,7-OMe)][X1])) | 1.3
6 | CCCC[C@@H]1NC(=O)[C@@H]2CC[C@@H](C2)NC(=O)[C@H]([C@@H](C)c2c[nH]c3c(OC)cccc23)NC(=O)CN(C)C(=O)[C@H](Cc2ccc(N3CCN(C(C)=O)CC3)cc2)NC(=O)[C@H](Cc2ccc(C(=O)O)cc2)NC(=O)[C@](C)(CO)NC(=O)[C@H](Cc2c[nH]c3c(Cl)cccc23)NC(=O)[C@H](Cc2ccncc2)NC(=O)[C@H](CC(N)=O)NC(=O)[C@H](CCC(=O)O)N(C)C(=O)[C@H](Cc2c[nH]c3ccccc23)NC(=O)[C@@H]2CNCCN2C(=O)[C@H](Cc2ccncc2)NC1=O [SEQ ID NO. 63] (cyclo([4Pal][Trp(7-Cl)][αMeS][Phe(4-COOH)][Phe(4-(4-Ac-piperazinyl))][Sar][Trp(βS-Me,7-OMe)][X1][Nle][4Pal][Pip(4-aza)]W[NMeE]N)) | 1.2
